In PubChem BioAssay AID256 (DTP/NCI, 2004):
Where “and” joins values, the source holds several entries; their conditions need not be identical. Equal values may be shown once. Inconclusive results and toxic doses are left out. Rule for the calls: active = survival T/C of 150% or more; inactive = T/C below 125% in these data.

Test system: CD2F1 mice, L1210 leukemia ip, survival T/C
Test: NCI In Vivo Anticancer Drug Screen. Data for tumor model L1210 Leukemia (intraperitoneal) in CD2F1 (CDF1) mice
Conditions: higher = longer survival
Method in brief: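 Mice carrying a transplanted tumor received test compound or vehicle alone. The value is the measurement in the treated group divided by that in the vehicle-treated control group.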

[1] = endpoint: mean survival time, dose: 100.0 mg/kg/injection, schedule: Q04DX003 (ip), vehicle: saline with Tween-80
[2] = endpoint: mean survival time, dose: 200.0 mg/kg/injection, schedule: Q04DX003 (ip), vehicle: saline with Tween-80
[3] = endpoint: mean survival time, dose: 400.0 mg/kg/injection, schedule: Q04DX003 (ip), vehicle: saline with Tween-80
[4] = endpoint: mean survival time, dose: 100.0 mg/kg/injection, schedule: Q01DX001 (ip), vehicle: saline
[5] = endpoint: mean survival time, dose: 100.0 mg/kg/injection, schedule: Q04DX003 (ip), vehicle: saline
[6] = endpoint: mean survival time, dose: 200.0 mg/kg/injection, schedule: Q01DX001 (ip), vehicle: saline
[7] = endpoint: mean survival time, dose: 200.0 mg/kg/injection, schedule: Q04DX003 (ip), vehicle: saline
[8] = endpoint: mean survival time, dose: 400.0 mg/kg/injection, schedule: Q01DX001 (ip), vehicle: saline
[9] = endpoint: mean survival time, dose: 400.0 mg/kg/injection, schedule: Q04DX003 (ip), vehicle: saline
[10] = endpoint: mean survival time, dose: 25.0 mg/kg/injection, schedule: Q04DX003 (ip), vehicle: saline with Tween-80
[11] = endpoint: mean survival time, dose: 50.0 mg/kg/injection, schedule: Q04DX003 (ip), vehicle: saline with Tween-80
[12] = endpoint: mean survival time, dose: 50.0 mg/kg/injection, schedule: Q01DX009 (ip), vehicle: saline with Tween-80
[13] = endpoint: mean survival time, dose: 100.0 mg/kg/injection, schedule: Q01DX009 (ip), vehicle: saline with Tween-80
[14] = endpoint: mean survival time, dose: 200.0 mg/kg/injection, schedule: Q01DX009 (ip), vehicle: saline with Tween-80
[15] = endpoint: mean survival time, dose: 400.0 mg/kg/injection, schedule: Q01DX009 (ip), vehicle: saline with Tween-80
[16] = endpoint: mean survival time, dose: 25.0 mg/kg/injection, schedule: Q04DX003 (ip), vehicle: saline
[17] = endpoint: mean survival time, dose: 50.0 mg/kg/injection, schedule: Q04DX003 (ip), vehicle: saline

Measured: T/C

COc1ccc(N2C(N)=NC(N)=NC2(C)C)cc1
inactive: endpoint: mean survival time, dose: 25.0 mg/kg/injection, schedule: Q04DX002 (ip), vehicle: saline 106 % of control | endpoint: mean survival time, dose: 50.0 mg/kg/injection, schedule: Q04DX002 (ip), vehicle: saline 100 % of control

CCCCCCCCCCCCCCCC(=O)NCC[N+](C)(CC)CC
inactive: endpoint: mean survival time, dose: 75.0 mg/kg/injection, schedule: Q01DX001 (ip), vehicle: saline 109 % of control

Oc1ccc2ccccc2c1
inactive: endpoint: mean survival time, dose: 10.0 mg/kg/injection, schedule: Q04DX003 (ip), vehicle: Klucel (hydroxypropylcellulose) (HPC) 101 % of control | endpoint: mean survival time, dose: 20.0 mg/kg/injection, schedule: Q04DX003 (ip), vehicle: Klucel (hydroxypropylcellulose) (HPC) 96 % of control | endpoint: mean survival time, dose: 40.0 mg/kg/injection, schedule: Q04DX003 (ip), vehicle: Klucel (hydroxypropylcellulose) (HPC) 96 % of control

COc1ccc(C(C#N)C(CC(=O)c2ccccc2)c2ccccc2)cc1 (configuration not stated)
inactive: endpoint: mean survival time, dose: 100.0 mg/kg/injection, schedule: Q04DX002 (ip), vehicle: saline with Tween-80 98 % of control | endpoint: mean survival time, dose: 200.0 mg/kg/injection, schedule: Q04DX002 (ip), vehicle: saline with Tween-80 91 % of control | endpoint: mean survival time, dose: 400.0 mg/kg/injection, schedule: Q04DX002 (ip), vehicle: saline with Tween-80 87 % of control

COc1cc(OC)c(OC)cc1/C=C/c1ccc2ccccc2n1
inactive: [1] 92 % of control | [2] 96 % of control | [3] 96 % of control

CNC(=O)/C(=C(\[O-])NC)[S+](C)(C)=O
inactive: [1] 101 % of control | [2] 100 % of control | [3] 100 % of control

Cc1ccccc1N1OS(=O)(=O)CC1(C#N)c1ccccc1 (configuration not stated)
inactive: [4] 106 % of control | [5] 98 % of control | [6] 100 % of control | [7] 101 % of control | [8] 102 % of control | [9] 96 % of control

C=CCN(CC=C)N=Nc1ccc(C(N)=O)cc1
inactive: endpoint: mean survival time, dose: 19.75 mg/kg/injection, schedule: Q01DX009 (ip), vehicle: Klucel (hydroxypropylcellulose) (HPC) 102 % of control | endpoint: mean survival time, dose: 39.5 mg/kg/injection, schedule: Q01DX009 (ip), vehicle: Klucel (hydroxypropylcellulose) (HPC) 102 % of control | endpoint: mean survival time, dose: 79.0 mg/kg/injection, schedule: Q01DX009 (ip), vehicle: Klucel (hydroxypropylcellulose) (HPC) 114 % of control and 110 % of control | endpoint: mean survival time, dose: 118.0 mg/kg/injection, schedule: Q01DX009 (ip), vehicle: Klucel (hydroxypropylcellulose) (HPC) 100 % of control | endpoint: mean survival time, dose: 177.0 mg/kg/injection, schedule: Q01DX009 (ip), vehicle: Klucel (hydroxypropylcellulose) (HPC) 112 % of control

CCCCc1ccc(O)c(CN2CCCCC2)c1
inactive: [10] 97 % of control | [11] 102 % of control | [1] 98 % of control and 100 % of control

[C-]#[O+].[C-]#[O+].[C-]#[O+].[C-]#[O+].[C-]#[O+].[Cr].c1ccc([PH+](c2ccccc2)c2ccccc2)cc1
inactive: [12] 100 % of control | [13] 91 % of control | [14] 93 % of control

Cc1ccc(S(=O)(=O)O/N=C2/CCC(C)(C)c3ccccc32)cc1
inactive: [13] 102 % of control | [1] 102 % of control | [14] 102 % of control | [2] 103 % of control | [15] 94 % of control | [3] 96 % of control

Clc1ccc(OCCOc2ccc(Cl)cc2Cl)c(Cl)c1
inactive: [1] 95 % of control | [2] 106 % of control | [3] 100 % of control

CCCCc1c(N)nc(N)nc1N
inactive: endpoint: mean survival time, dose: 18.7 mg/kg/injection, schedule: Q01DX001 (ip), vehicle: saline with Tween-80 104 % of control | endpoint: mean survival time, dose: 37.5 mg/kg/injection, schedule: Q01DX001 (ip), vehicle: saline with Tween-80 100 % of control | endpoint: mean survival time, dose: 75.0 mg/kg/injection, schedule: Q01DX001 (ip), vehicle: saline with Tween-80 109 % of control

COc1ccc(/C=N/N=C(/C(=O)c2ccc(OC)cc2)c2ccc(OC)cc2)cc1
inactive: [4] 95 % of control | [5] 102 % of control | [6] 91 % of control | [7] 97 % of control | [8] 95 % of control | [9] 96 % of control

C=C(C)CNCC(=C)C
inactive: [16] 102 % of control | [17] 98 % of control | [5] 102 % of control and 106 % of control

Cn1ccn(C2CCCCC2)c1=O
inactive: endpoint: mean survival time, dose: 25.0 mg/kg/injection, schedule: Q01DX009 (ip), vehicle: saline with Tween-80 98 % of control | [10] 96 % of control | [12] 101 % of control | [11] 100 % of control | [13] 95 % of control | [1] 91 % of control and 93 % of control

S=C([S-])N1CCCCC1.S=C([S-])N1CCCCC1.[Zn]
inactive: endpoint: mean survival time, dose: 18.8 mg/kg/injection, schedule: Q01DX009 (ip), vehicle: saline 93 % of control | endpoint: mean survival time, dose: 37.5 mg/kg/injection, schedule: Q01DX009 (ip), vehicle: saline 90 % of control

ON=C1c2c(ccc3ccccc23)-c2ccc3ccccc3c21
inactive: endpoint: mean survival time, dose: 100.0 mg/kg/injection, schedule: Q01DX001 (ip), vehicle: saline with Tween-80 95 % of control | [13] 98 % of control | endpoint: mean survival time, dose: 200.0 mg/kg/injection, schedule: Q01DX001 (ip), vehicle: saline with Tween-80 96 % of control | [14] 95 % of control | endpoint: mean survival time, dose: 400.0 mg/kg/injection, schedule: Q01DX001 (ip), vehicle: saline with Tween-80 102 % of control | [15] 93 % of control

NC(CCC(=O)NC(CS)C(=O)NCC(=O)O)C(=O)O (configuration not stated)
inactive: endpoint: median survival time, dose: 25.0 mg/kg/injection, schedule: Q01DX009 (ip), vehicle: saline 100 % of control | endpoint: median survival time, dose: 50.0 mg/kg/injection, schedule: Q01DX009 (ip), vehicle: saline 110 % of control | endpoint: median survival time, dose: 100.0 mg/kg/injection, schedule: Q01DX009 (ip), vehicle: saline 104 % of control | endpoint: median survival time, dose: 200.0 mg/kg/injection, schedule: Q01DX009 (ip), vehicle: saline 104 % of control | endpoint: median survival time, dose: 400.0 mg/kg/injection, schedule: Q01DX009 (ip), vehicle: saline 94 % of control

OC(C=C(C(F)(F)F)C(F)(F)F)c1ccccc1Cl (configuration not stated)
inactive: [11] 102 % of control | [1] 107 % of control | [2] 111 % of control

CC(C(=O)N1c2ccccc2Sc2ccccc21)[N+](C)(C)C (configuration not stated)
inactive: endpoint: mean survival time, dose: 12.5 mg/kg/injection, schedule: Q04DX003 (ip), vehicle: saline 97 % of control | [16] 101 % of control | [17] 101 % of control

O=C(O)CCN1C(=O)c2ccccc2C1=O
inactive: [1] 98 % of control | [2] 97 % of control | [3] 97 % of control

O=c1ssc(=Nc2ccccc2)n1-c1ccccc1
inactive: endpoint: mean survival time, dose: 12.5 mg/kg/injection, schedule: Q01DX009 (ip), vehicle: Klucel (hydroxypropylcellulose) (HPC) 103 % of control | endpoint: mean survival time, dose: 25.0 mg/kg/injection, schedule: Q01DX009 (ip), vehicle: Klucel (hydroxypropylcellulose) (HPC) 93 % of control and 102 % of control | endpoint: mean survival time, dose: 50.0 mg/kg/injection, schedule: Q01DX009 (ip), vehicle: Klucel (hydroxypropylcellulose) (HPC) 98 % of control and 110 % of control | endpoint: mean survival time, dose: 100.0 mg/kg/injection, schedule: Q01DX009 (ip), vehicle: Klucel (hydroxypropylcellulose) (HPC) 103 % of control and 108 % of control | endpoint: mean survival time, dose: 200.0 mg/kg/injection, schedule: Q01DX009 (ip), vehicle: Klucel (hydroxypropylcellulose) (HPC) 98 % of control and 102 % of control | endpoint: mean survival time, dose: 400.0 mg/kg/injection, schedule: Q01DX009 (ip), vehicle: Klucel (hydroxypropylcellulose) (HPC) 117 % of control and 104 % of control
